Results published in patent US11807620B2, “Quinazolinone compounds and related compounds” (PLEXIUM, INC., priority 2020, dated 2023).

Target: T1, cereblon (NanoLuc-CRBN) (Homo sapiens, UniProt Q96SW2)
T1 construct: host or cells: HEK293T
Assay: NanoBRET CRBN Cellular Target Engagement Assay
Assay type: binding
Settings: compound tested at 10 μM, HEK293T cells transfected with NanoLuc-CRBN, 2 hr incubation; for remaining activity at 10 µM: lower = higher affinity, read-out: % tracer bound At the end of assay; for inhibition at 10 µM: read-out: % tracer removed From CBLN
Text: The following example measures the extent to which a test compound of this invention binds to cereblon. In this example, a commercially available cereblon binding test kit (Promega Corporation, Madison, Wis., USA) was used but adapted to a 384 well format.
The kit comprises a tracer that binds to cereblon to form a tracer-cereblon complex. This complex is reversible. Upon addition of the test compound, competition between the tracer and the test compound for the binding site(s) on cereblon occurs. The extent of tracer release from cereblon correlates to the affinity of test compound to bind to cereblon. The higher the affinity, the more tracer is released from cereblon.
The assay is a homogenous cell-based assay that used bioluminescence resonance energy transfer (BRET) to measure cereblon target compound binding which causes loss of BRET. Lower BRET values correlate to higher loss of tracer bound to cereblon and, accordingly, higher the levels of target compound binding to cereblon.
The specifics of the assay include HEK293T cells were transfected with a NanoLuc-CRBN expression plasmid using Fugene as described. Approximately 24 hr later, transfected cells were washed with 1× Phosphate Buffered Saline (PBS) and harvested using trypsin. Cells were resuspended in Opti-MEM (available from Thermo Fisher Scientific) at a concentration of 2×10^5 cells/mL. A ratio of 1 part 100× Tracer to 4 parts NanoBRET Tracer Dilution Buffer was used to make a 20× Tracer stock. Next, 40 μl cells per well containing 1× tracer was dispensed into 384 well white tissue culture treated plates. Compounds were then dispensed using a D330e Digital Dispenser (Tecan Trading AG) and plates were allowed to incubate for 2 hr at 37° C., 5% CO2. Immediately prior to BRET measurements, a 3× Complete NanoBret Nano-Glo Substrate stock in Opti-MEM was prepared and 20 μl per well of substrate was subsequently added to the assay plates. Following a 2-3 minute incubation at room temperature, donor (450 nm) and acceptor (610 nm) emission values were read on a CLARIOStar multimode plate reader (BMG) in luminescence mode. Data were converted to milliBRET units by dividing acceptor emission values by donor emission and multiplying by 1000. […]

T1 sequence (Q96SW2 whole entry): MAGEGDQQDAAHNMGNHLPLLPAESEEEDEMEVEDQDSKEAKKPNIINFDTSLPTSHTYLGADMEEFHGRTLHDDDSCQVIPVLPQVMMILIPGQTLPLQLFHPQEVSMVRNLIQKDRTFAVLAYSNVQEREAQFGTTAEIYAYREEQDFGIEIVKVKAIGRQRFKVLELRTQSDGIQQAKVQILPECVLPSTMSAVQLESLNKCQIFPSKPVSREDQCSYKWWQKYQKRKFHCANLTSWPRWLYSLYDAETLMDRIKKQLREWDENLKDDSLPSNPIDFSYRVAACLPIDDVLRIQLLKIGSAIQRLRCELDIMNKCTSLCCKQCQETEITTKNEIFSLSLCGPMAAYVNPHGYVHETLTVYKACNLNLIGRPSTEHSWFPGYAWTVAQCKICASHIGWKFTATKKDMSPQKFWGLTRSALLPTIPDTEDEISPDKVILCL

Row | remaining activity at 10 µM [%] | inhibition at 10 µM [%] | Structure (SMILES)
1 | 23.9 | 76.1 | Cc1nc2cccc(NCc3ccc(C(F)(F)F)cc3)c2c(=O)n1C1CCC(=O)NC1=O (stereo not shown) [Example 15, 3-(5-((4-trifluoromethyl-benzyl)-amino)-2-methyl-4-oxoquinazolin-3(4H)-yl)piperidine-2,6-dione]
2 | 20.9 | 79.1 | COc1cc(CNc2cccc3nc(C)n(C4CCC(=O)NC4=O)c(=O)c23)cc(OC)c1 (stereo not shown) [Example 16, 3-(5-((3,5-dimethoxy-benzyl)-amino)-2-methyl-4-oxoquinazolin-3(4H)-yl)piperidine-2,6-dione]
3 | 0 | 100 | COc1ccc(CNc2cccc3nc(C)n(C4CCC(=O)NC4=O)c(=O)c23)cc1OC (stereo not shown) [Example 12, 3-(5-((3,4-dimethoxy-benzyl)-amino)-2-methyl-4-oxoquinazolin-3(4H)-yl)piperidine-2,6-dione]
4 | 9.9 | 90.1 | Cc1nc2cccc(NCc3ccc(CO)cc3)c2c(=O)n1C1CCC(=O)NC1=O (stereo not shown) [Example 21, 3-(5-((4-(hydroxymethyl)benzyl)amino)-2-methyl-4-oxoquinazolin-3(4H)-yl)piperidine-2,6-dione]
5 | 16 | 84 | Cc1nc2cccc(NCc3ccccc3C#N)c2c(=O)n1C1CCC(=O)NC1=O (stereo not shown) [Example 13, 3-(5-((2-cyanobenzyl)-amino)-2-methyl-4-oxoquinazolin-3(4H)-yl)piperidine-2,6-dione]
6 | 11.5 | 88.5 | Cc1nc2cccc(NCc3ccc(C#N)cc3)c2c(=O)n1C1CCC(=O)NC1=O (stereo not shown) [Example 14, 3-(5-((4-cyanobenzyl)-amino)-2-methyl-4-oxoquinazolin-3(4H)-yl)piperidine-2,6-dione]
7 | 21.3 | 78.7 | Cc1nc2cccc(NCc3c(Cl)cccc3Cl)c2c(=O)n1C1CCC(=O)NC1=O (stereo not shown) [Example 18, 3-(5-((2,6-dichlorobenzyl)-amino)-2-methyl-4-oxoquinazolin-3(4H)-yl)piperidine-2,6-dione]
8 | 12.1 | 87.9 | Cc1nc2cccc(NCc3cc(Cl)ccc3Cl)c2c(=O)n1C1CCC(=O)NC1=O (stereo not shown) [Example 20, 3-(5-((2,5-dichlorobenzyl)amino)-2-methyl-4-oxoquinazolin-3(4H)-yl)piperidine-2,6-dione]
9 | 29.7 | 71.3 | COc1ccc(OC)c(CNc2cccc3nnn(C4CCC(=O)NC4=O)c(=O)c23)c1 (stereo not shown) [Example 19, 3-(5-((2,5-dimethoxybenzyl)amino)-4-oxobenzo[d][1,2,3]triazin-3(4H)-yl)piperidine-2,6-dione]
10 | 34.8 | 65.2 | COc1ccc(CNc2cccc3nc(C)n(C4CCC(=O)NC4=O)c(=O)c23)c(OC)c1 (stereo not shown) [Example 17, 3-(5-((2,4-dimethoxy-benzyl)-amino)-2-methyl-4-oxoquinazolin-3(4H)-yl)piperidine-2,6-dione]

Further lines, the compound ahead of its results:

Row | Structure (SMILES) | remaining activity at 10 µM [%] | inhibition at 10 µM [%]
11 | COc1ccccc1CNc1cccc2nc(C)n(C3CCC(=O)NC3=O)c(=O)c12 (stereo not shown) [Example 2, 3-(5-((2-methoxybenzyl)amino)-2-methyl-4-oxoquinazolin-3(4H)-yl)piperidine-2,6-dione] | 47.4 | 52.6
12 | Cc1nc2cccc(NCc3ccccc3Cl)c2c(=O)n1C1CCC(=O)NC1=O (stereo not shown) [Example 9, 3-(5-((2-chlorobenzyl)-amino)-2-methyl-4-oxoquinazolin-3(4H)-yl)piperidine-2,6-dione] | 30.2 | 69.8
13 | Cc1ccc(CNc2cccc3nc(C)n(C4CCC(=O)NC4=O)c(=O)c23)cc1 (stereo not shown) [Example 8, 3-(2-methyl-5-((4-methylbenzyl)amino)-4-oxoquinazolin-3(4H)-yl)piperidine-2,6-dione] | 47.7 | 52.3
14 | COc1cccc(CNc2cccc3nc(C)n(C4CCC(=O)NC4=O)c(=O)c23)c1 (stereo not shown) [Example 3, 3-(5-((3-methoxybenzyl)amino)-2-methyl-4-oxoquinazolin-3(4H)-yl)piperidine-2,6-dione] | 27.3 | 72.7
15 | Cc1nc2cccc(NCc3cccc(Cl)c3)c2c(=O)n1C1CCC(=O)NC1=O (stereo not shown) [Example 10, 3-(5-((3-chlorobenzyl)-amino)-2-methyl-4-oxoquinazolin-3(4H)-yl)piperidine-2,6-dione] | 20.2 | 79.8
16 | Cc1nc2cccc(NCc3ccccc3F)c2c(=O)n1C1CCC(=O)NC1=O (stereo not shown) [Example 6, 3-(5-((2-fluorobenzyl)amino)-2-methyl-4-oxoquinazolin-3(4H)-yl)piperidine-2,6-dione] | 26.6 | 73.4
17 | Cc1ccccc1CNc1cccc2nc(C)n(C3CCC(=O)NC3=O)c(=O)c12 (stereo not shown) [Example 11, 3-(5-((2-methylbenzyl)-amino)-2-methyl-4-oxoquinazolin-3(4H)-yl)piperidine-2,6-dione] | 30.2 | 69.8
